Assay results reported in patent publication US7432286B1, “Pharmaceutically active sulfonyl hydrazide derivatives” (Laboratories Serono SA, priority 1999, dated 2008).

Experiments:
Hlr c-Jun HeLa cells = assay: C-Jun reporter assay (MEKK1 induced, Dual-Luciferase); assay type: cell-based; details: Homo sapiens
Method: Hlr c-Jun HeLa cells are cultured in DMEM High Glc supplemented with 10% FCS (Sigma), 2 mM Glutamine (Gibco), P/S, Hygromycin b 100 μg/mL and G418 250 μg/mL
The cell suspension are diluted with medium to give about 3.5×10^6 cells/mL and […] of cell suspension are put onto 210 cm culture dishes containing 9 mL of culture medium. The plates are incubated at 37° C. in a humidified atmosphere of 5% CO2 in air
• Control: 0.2 μg pTK Renilla, […] pBluescript KS, 500 μl OPTIMEM (GIBCO), 18 μl Fugene 6 • Induced: 0.1 μg pMEKK1, 0.2 μg pTK Renilla, 5.7 μg pBluescript KS, 500 μl OPTIMEM (GIBCO), 18 μl Fugene 630′ RT
The transfection mixture is added to the plated cells. The plates are incubated over night at 37° C. in a humidified atmosphere of 5% CO2 in air
A 96 wells plate containing 100 μl of culture medium per well is prepared Negative control (vehicle): 2 μl of DMSO is added to the 100 μl (in triplicate). Compound: 2 μl of Hit compound stock dilution are added to the 100 μl (in triplicate). The transfected cells are trypsinised and ressuspend in 12 mL of culture medium. 100 μl of the dilution are added to each of the 96 wells plate.
The plate is incubated over night at 37° C. in a humidified atmosphere of 5% CO2 in air
The medium is removed from the plate and the cells washed two times with 100 μl PBS Completely remove the rinse solution before applying PLB reagent. Dispense into each culture well […] of 1X PLB. Place the culture plates on a rocking platform or orbital shaker with gentle
rocking/shaking to ensure complete and even coverage of the cell monolayer with 1X PLB. Rock the culture plates at room temperature for 15 minutes. Transfer 20 μl of the lysate into a white opaque 96 wells plate. Read in a luminometer. • Inject 50 μl of Luciferase Assay Reagent II wait 5″, read 10″ • Inject 50 μl of Stop & Glo® Reagent wait 5″, read 10″
Check RLU Luciferase/RLU Renilla*1000

GST-JNK2 = GST-JNK2 (Homo sapiens, UniProt P45984); assay: JNK2 in vitro assay (SPA, GST-c-Jun phosphorylation); assay type: biochemical; details: recombinant pre-activated GST-JNK2, 2 μM ATP
Chain of GST-JNK2 (P45984 whole entry): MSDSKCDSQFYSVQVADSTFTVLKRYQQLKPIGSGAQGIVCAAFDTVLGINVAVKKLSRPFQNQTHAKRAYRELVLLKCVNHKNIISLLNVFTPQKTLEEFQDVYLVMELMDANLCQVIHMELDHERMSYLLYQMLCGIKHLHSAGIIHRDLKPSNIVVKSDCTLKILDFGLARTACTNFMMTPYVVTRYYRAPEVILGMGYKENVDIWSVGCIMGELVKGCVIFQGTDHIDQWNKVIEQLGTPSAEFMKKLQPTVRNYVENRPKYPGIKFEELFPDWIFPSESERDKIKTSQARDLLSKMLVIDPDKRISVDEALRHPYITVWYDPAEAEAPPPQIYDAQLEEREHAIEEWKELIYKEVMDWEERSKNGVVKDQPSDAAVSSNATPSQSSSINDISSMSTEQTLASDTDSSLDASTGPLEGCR
Method: (§1) JNK 2 and 3 in vitro assays: JNK3 and/or 2 assays are performed in 96 well MTT plates, by incubation of 0.5 μg of recombinant, pre-activated GST-JNK3 or GST-JNK2 with 1 μg of recombinant, biotinylated GST-c-Jun and 2 μM ^33γ-ATP (2 nCi/μl), in the presence or absence of sulfonamide inhibitors if formula I and in a reaction volume of 50 μl containing 50 mM Tris-HCl, pH 8.0; 10 mM MgCl2; 1 mM Dithiothreitol, and 100 μM NaVO4. The incubation is performed for 120 min. at R.T and stopped upon addition of 200 μl of a solution containing 250 μg of Streptavidine-coated SPA beads (Amersham, Inc.)*, 5 mM EDTA, 0.1% Triton X-100 and 50 μM ATP, in phosphate saline buffer. After incubation for 60 minutes at RT, beads are sedimented by centrifugation at 1500×g for 5 minutes, resuspended in 200 μl of PBS containing 5 mM EDTA, 0.1% Triton X-100 and 50 μM ATP and the radioactivity measured in a scintillation β counter, following sedimentation of the beads as described above. By substituting GST-c Jun for biotinylated GST-1ATF2 or myelin basic protein, this assay can be used to measure inhibition of preactivated p38 and ERK MAP Kinases, respectively.
(§2) The values indicated in respect of JNK2 and 3, p38 and ERK2 refer to the IC50 (μM), i.e. the amount necessary to achieve 50% inhibition of said target (e.g. JNK2). From the above table it could be derived that said test compounds according to formula I do have a significant effect both on JNK2 and 3, but virtually no effect onto p38 and ERK2, thus delivering a quite selective inhibitory effect.

p38 = p38 (Homo sapiens, UniProt Q16539); assay: p38 in vitro kinase assay (SPA, GST-ATF2 substrate); assay type: biochemical; details: preactivated p38
Chain of p38 (Q16539 whole entry): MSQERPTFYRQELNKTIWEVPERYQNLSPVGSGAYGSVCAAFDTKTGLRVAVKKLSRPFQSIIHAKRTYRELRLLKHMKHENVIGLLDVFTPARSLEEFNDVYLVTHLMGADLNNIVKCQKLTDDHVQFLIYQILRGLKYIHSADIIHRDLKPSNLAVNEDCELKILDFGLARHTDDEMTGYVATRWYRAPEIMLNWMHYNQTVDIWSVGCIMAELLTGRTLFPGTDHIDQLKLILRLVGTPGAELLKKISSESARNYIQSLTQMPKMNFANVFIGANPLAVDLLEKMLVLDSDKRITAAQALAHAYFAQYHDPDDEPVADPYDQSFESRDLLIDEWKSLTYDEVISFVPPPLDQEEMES
Method: as §1, §2

GST-JNK3 = GST-JNK3 (Homo sapiens, UniProt P53779); assay: JNK3 in vitro assay (SPA, GST-c-Jun phosphorylation); assay type: biochemical; details: recombinant pre-activated GST-JNK3, 2 μM ATP
Chain of GST-JNK3 (P53779 whole entry): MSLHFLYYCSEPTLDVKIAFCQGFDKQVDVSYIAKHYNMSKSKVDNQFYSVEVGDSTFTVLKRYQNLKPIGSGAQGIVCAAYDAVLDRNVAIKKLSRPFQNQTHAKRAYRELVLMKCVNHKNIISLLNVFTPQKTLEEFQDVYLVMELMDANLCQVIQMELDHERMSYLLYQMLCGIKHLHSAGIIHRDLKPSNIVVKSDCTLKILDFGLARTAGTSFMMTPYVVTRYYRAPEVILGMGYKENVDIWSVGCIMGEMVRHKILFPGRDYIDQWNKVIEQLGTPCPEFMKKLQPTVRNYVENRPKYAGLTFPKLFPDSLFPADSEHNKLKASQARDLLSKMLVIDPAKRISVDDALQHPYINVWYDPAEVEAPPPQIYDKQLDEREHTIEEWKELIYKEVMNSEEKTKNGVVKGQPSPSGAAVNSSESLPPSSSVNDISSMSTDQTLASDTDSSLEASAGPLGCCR
Method: as §1, §2

ERK2 = ERK2 (Homo sapiens, UniProt P28482); assay: ERK2 in vitro kinase assay (SPA, myelin basic protein substrate); assay type: biochemical; details: preactivated ERK
Chain of ERK2 (P28482 whole entry, species assumed): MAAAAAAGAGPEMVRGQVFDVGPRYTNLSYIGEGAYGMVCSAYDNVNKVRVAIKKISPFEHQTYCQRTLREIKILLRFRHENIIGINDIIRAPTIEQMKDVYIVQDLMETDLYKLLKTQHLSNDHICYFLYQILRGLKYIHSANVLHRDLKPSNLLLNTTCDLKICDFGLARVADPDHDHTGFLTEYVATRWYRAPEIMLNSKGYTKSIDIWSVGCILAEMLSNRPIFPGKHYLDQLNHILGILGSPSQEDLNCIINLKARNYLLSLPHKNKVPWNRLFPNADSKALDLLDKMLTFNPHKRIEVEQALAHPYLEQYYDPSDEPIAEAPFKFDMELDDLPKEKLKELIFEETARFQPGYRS
Method: as §1, §2

[1] = tested on: IL-2 release by Jurkat cells; assay: IL-2 release assay (PMA+Ionomycine stimulated, ELISA); assay type: cell-based; details: Homo sapiens, 24 hours, read-out: % Inhibition of IL2 Production @ 3 uM
Method: Jurkat cells, a human T cell leukemia cell line (American Type Culture Collection # TIB 152) were cultured in RPMI 1640 medium (Gibco, BRL) supplemented with 10% of heatactivated FCS, Glutamine and Penstrep. The cell suspension in the medium is diluted to give 2.10^6 cells/mL. The cells were plated (2.10^5 cells/well) on a 96-well plate containing different concentration of test compound (final concentration of compounds, 10, 3, 1, 0.3, 0.1 μM). This mixture is incubated 30 minutes at 37° C. in a humidified CO2 atmosphere. Cells were then treated with 10 ul PMA+Ionomycine (0.1 μM and 1 μM final concentration) in all wells except negative control. In wells without compounds, 10 μl of RPMI 2% DMSO (=0.1% final) is added. Cells are incubated 24 hours at 37° C. and then the supernatant harvested (freeze at −20° C. if not used the same day) prior to performing IL-2 ELISA test on the supernatant.
IL-2 release into the medium by PMA+Iono-stimulated Jurkat cells, in presence or absence of test compounds is assayed by ELISA. Following the procedure described below
Transfer 100 μl capture antibody diluted in PBS at 5 μg/mL into a 96 well ELISA plate and incubate overnight at room temperature.
Aspirate each well and wash 3 times with Wash buffer. After the last wash, damp the plate.
1. Saturate with 200 μl PBS-10% FCS. Incubate 1 hour at room temperature.
2. Repeat the wash step 2.
• 1. Add 100 μl of sample or standard (2000, 1000, 500, 250, 125, 62.5, 31.25 pg/mL) and incubate 2 hours at room temperature. • 2. Wash 3 times. • 3. Add 100 μl of biotinylated anti-human IL-2 at 12.5 ng/mL. Incubate 2 hours at room temperature. • 4. Wash 3 times. • 5. Add 100 μl streptavidin-HRP (Zymed #43-4323) at 1:10,000. Incubate 30 minutes at room temperature. • 6. Wash 3 times • 7. Add 100 μl substrate solution (citric acid/Na2HPO4 (1:1)+H2O2 1:2000+OPD). Incubate 20-30 minutes at room temperature. • 8. Add 50 μl of stop solution to each well. • 9. Determine optical density using a microtiter plate reader set to 450 nm with correction at 570 nm.

IC50 (GST-JNK2) [nM]	IC50 (p38) [nM]	IC50 (GST-JNK3) [nM]	IC50 (ERK2) [nM]	melting point [°C]	Compound	inhibition at 10 µM (Hlr c-Jun HeLa cells) [%]	inhibition at 3 µM [1] [%]
				174.5 to 175.5	O=C(CCCNc1ncc(C(F)(F)F)cc1Cl)NNS(=O)(=O)c1ccc(CNC(=O)c2ccccc2O)s1 [Example 20, N-[(5-{[2-(4-{[3-chloro-5-(trifluoromethyl)pyridin-2-yl]amino}butanoyl)hydrazino]sulfonyl}thien-2-yl)methyl]-2-hydroxybenzamide]		
560	> 30000	410	> 30000		O=C(CCCNc1ncc(C(F)(F)F)cc1Cl)NNS(=O)(=O)c1ccc(CNC(=O)c2ccc[nH]c2=O)s1 [Example 75, N-[(5-{[2-(4-{[3-chloro-5-(trifluoromethyl)pyridin-2-yl]amino}butanoyl)hydrazino]sulfonyl}thien-2-yl)methyl]-2-oxo-1,2-dihydropyridine-3-carboxamide]	> 20	> 30

Continued, compound first:

Compound	IC50 (GST-JNK2) [nM]	IC50 (p38) [nM]	IC50 (GST-JNK3) [nM]	IC50 (ERK2) [nM]	melting point [°C]	inhibition at 10 µM (Hlr c-Jun HeLa cells) [%]	inhibition at 3 µM [1] [%]
O=C(NCc1ccc(S(=O)(=O)NNC(=O)c2csc(-c3ccc(C4SCCS4)cc3)n2)s1)c1ccc(Cl)cc1 [Example 1, 4-chloro-N-[(5-{[2-({2-[4-(1,3-dithiolan-2-yl)phenyl]-1,3-thiazol-4-yl}carbonyl)-hydrazino]sulfonyl}thien-2-yl)methyl]benzamide]	370	> 30000	210	> 30000		> 20	> 30
O=C(NCc1ccc(S(=O)(=O)NNC(=O)c2csc(COc3ccccc3Cl)n2)s1)c1ccc(Cl)cc1 [Example 13, 4-chloro-N-[(5-{[2-({2-[(2-chlorophenoxy)methyl]-1,3-thiazol-4-y1}carbonyl)hydrazino]sulfonyl}thien-2-yl)methyl]benzamide]	970	> 30000	310	> 30000		> 20	> 30
O=C(CCCNc1ncc(C(F)(F)F)cc1Cl)NNS(=O)(=O)c1ccc(CNC(=O)c2ccc(Cl)cc2)cc1 [Example 80, 4-chloro-N-(4-{[2-(4-{[3-chloro-5-(trifluoromethyl)pyridin-2-yl]amino}butanoyl)hydrazino]sulfonyl}benzyl)benzamide]	1020	> 30000	250	> 30000		> 20	> 30
